According to publication PMC8316002, “Inhibition of Escherichia coli Lipoprotein Diacylglyceryl Transferase Is Insensitive to Resistance Caused by Deletion of Braun’s Lipoprotein” (Journal of Bacteriology, 2021):
Converted amounts (≈) assume the structure as drawn.

Tests used:
WT CFT073 = assay: MIC assay, WT CFT073 (Table 1); assay type: cell-based, E. coli; settings: average of two independent experiments, each in duplicates, CLSI
Procedure: (§1) Unless stated otherwise, E. coli cells were grown in Luria-Bertani (LB) medium (0.5% yeast extract, 1% tryptone, 0.5% NaCl) at 37°C. Where indicated, kanamycin (Kan) was added to culture media at a 50-μg/ml final concentration. MIC assays were performed based on Clinical and Laboratory Standards Institute (CLSI) guidelines. For in vitro growth curves, overnight cultures of WT CFT073, CFT073 Δlgt, and CFT073 Δlgt complemented with lgt from E. coli (lgt^Ec) or P. aeruginosa (lgt^Pa) were grown to mid-exponential phase (optical density at 600 nm [OD600] of 0.6) and then diluted to an OD600 of 0.1 to initiate growth curves. At various times, culture aliquots were diluted and plated in dilutions on LB+Kan agar, and CFU were enumerated in duplicates. Growth of MG1655 inducible deletion strains was measured by culturing in the presence of 2-fold dilutions of arabinose (starting arabinose concentrations for CFT073 and MG1655 inducible deletion strains were 4% and 0.8%, respectively). While […] was sufficient for WT growth of MG1655 Δlgt, 4% arabinose was used for CFT073 Δlgt based on comparing its growth to that of WT CFT073 as measured by CFU. OD600 growth measurements were performed using an EnVision 2101 multilabel reader plate reader (PerkinElmer) linked with Echo liquid handler (Labcyte). For time-kill experiments, bacteria were harvested in mid-exponential phase and treated with 12.5 μM G2824, 3.2 μM globomycin, and 1.6 μM vancomycin. CFU were enumerated at various times posttreatment. Bacterial culture medium containing 2% arabinose was used to induce lpp or lppΔK expression from pBad24 plasmids. Bacterial viability at different time points during the treatment was measured by enumerating CFU. Serum killing assays were carried out as previously described ([17]).

CFT073 Δlgt [1] = assay: MIC assay, CFT073 Δlgt, Lgt 0.25% Ara; assay type: cell-based, E. coli
Procedure: as §1

CFT073 Δlgt [2] = assay: MIC assay, CFT073 Δlgt, Lgt 4% Ara; assay type: cell-based, E. coli; settings: Escherichia coli
Procedure: as §1

Lgt = assay: Lgt-dependent diacylglyceryl modification of peptide substrate (MS, SDS-PAGE); assay type: biochemical, E. coli
BW25113 cells, lgt gRNA = assay: CRISPRi knockdown sensitization, lgt gRNA; assay type: cell-based, E. coli; settings: 2 μM G2824, 0.05 μM globomycin or 0.016 μM ciprofloxacin; OD600 relative to untreated, versus scr or folA gRNA
Text: (§2) The two-plasmid bacterial CRISPRi system pdCas9-bacteria_GNE and PGNRNA-bacteria_GNE are based on the AddGene plasmids 44249 and 44251 ([73]), respectively. The plasmid was synthesized in smaller DNA fragments (500 bp to 3 kb) (IDT gBlocks) and assembled by Gibson assembly (NEB) according to the manufacturer’s protocols. Plasmids were confirmed by sequencing (ELIM Bio). gRNAs were designed to target the 5′ end of the gene on the nontemplate strand using Benchling CRISPR software ([74]). gRNAs were cloned into PGNRNA-bacteria using Gibson assembly (NEB) according to the manufacturer’s protocols and sequence confirmed (ELIM Bio).
(§3) Bacterial cultures were grown overnight on LB agar supplemented with carbenicillin (50 μg/ml) and chloramphenicol (12.5 μg/ml) to maintain both plasmids, pdCas9-bacteria and PGNRNA-bacteria with each gRNA as appropriate. Cells were scraped from the plate into fresh medium. The OD600 was measured, and the culture was subsequently diluted to an OD600 0.001 in the presence or absence of G2824, globomycin, or ciprofloxacin. Two hundred microliters was transferred to a 96-well plate (Corning) and monitored for growth by measuring the OD600 (EnVision multimode plate reader; PerkinElmer). All treatments were performed in triplicates. The specificity of CRISPRi downregulation was measured using reverse transcriptase quantitative PCR (RT-qPCR).

BW25113 cells, lspA gRNA = assay: CRISPRi knockdown sensitization, lspA gRNA; assay type: cell-based, E. coli; settings: 2 μM G2824, 0.05 μM globomycin or 0.016 μM ciprofloxacin; OD600 relative to untreated, versus scr or folA gRNA
Text: as §2, §3

Compound	MIC (WT CFT073; Escherichia coli) [µM]	MIC (CFT073 Δlgt [1]; Escherichia coli) [µM]	MIC (CFT073 Δlgt [2]) [µM]	further results
Cc1onc(-c2ccccc2)c1C(=O)N[C@@H]1C(=O)N2[C@@H]1SC(C)(C)[C@@H]2C(=O)O [Oxacillin]	> 100	12.5 (≈ 5.02 µg/mL)	> 100	
CC1(C)S[C@@H]2[C@H](NC(=O)Cc3ccccc3)C(=O)N2[C@H]1C(=O)O [Penicillin G]	> 50	0.8 (≈ 0.268 µg/mL)	> 50	
CO[C@H]1/C=C/O[C@@]2(C)Oc3c(C)c(O)c4c(O)c(cc(O)c4c3C2=O)NC(=O)/C(C)=C\C=C\[C@H](C)[C@H](O)[C@@H](C)[C@@H](O)[C@@H](C)[C@H](OC(C)=O)[C@@H]1C [Rifamycin]	6.3 (≈ 4.4 µg/mL)	0.8 (≈ 0.558 µg/mL)		
MQLNKVLKGLMIALPVMAIAACSSNKN [Pal-IAAC, peptide substrate derived from the Pal lipoprotein]				diacylglyceryl modification by SDS-PAGE (Lgt; SDS-PAGE, Coomassie blue): is Lgt dependent; diacylglyceryl modification, mass addition (Lgt; mass spectrometry, Lgt dependent): 552 Da
Cc1c(N)nc([C@H](CC(N)=O)NC[C@H](N)C(N)=O)nc1C(=O)N[C@H](C(=O)N[C@H](C)[C@@H](O)[C@H](C)C(=O)N[C@H](C(=O)NCCC1=N[C@@H](c2nc(C(=O)NCCCCN=C(N)N)cs2)CS1)[C@@H](C)O)[C@@H](O[C@@H]1O[C@@H](CO)[C@@H](O)[C@H](O)[C@@H]1O[C@H]1O[C@H](CO)[C@@H](O)[C@H](OC(N)=O)[C@@H]1O)c1cnc[nH]1 [Zeocin]				MIC (WT CFT073): 12.5 µM (≈ 17.8 µg/mL); MIC (CFT073 Δlgt [1]; CFT073 Δlgt, Lgt 0.25% Ara (low Lgt level), average of two independent experiments, each in duplicates, CLSI): 0.8 µM (≈ 1.14 µg/mL)
O=C(O)c1cn(C2CC2)c2cc(N3CCNCC3)c(F)cc2c1=O [ciprofloxacin]				sensitization by decreased lgt expression (BW25113 cells, lgt gRNA): did not lead to increased sensitivity; sensitization by decreased lspA expression (BW25113 cells, lspA gRNA): did not lead to increased sensitivity
CCn1cc(C(=O)O)c(=O)c2cc(F)c(N3CCNCC3)cc21 [Norfloxacin]	0.4 (≈ 0.128 µg/mL)	0.2 (≈ 0.0639 µg/mL)	0.6 (≈ 0.192 µg/mL)	
